Measured values: the supplement of paper PMC4862054

Legend:
Test in all cases: normalised viability (% of control), CellTiter-Blue; higher = more viable cells (about 100 = DMSO control)
Conditions in all cases: incubation time: 72 h
[1] = tested on: CAL-148
Protocol: (§1)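 DSRT, CellTiter-Blue viability, 72 h incubation. Signal is normalised to DMSO and benzethonium chloride controls. Value is the normalised response at dose 8.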

[2] = tested on: CAL-85-1
Protocol: as §1

[3] = tested on: DU-4475
Protocol: as §1

[4] = tested on: CAL-51
Protocol: as §1

[5] = tested on: MDA-MB-453
Protocol: as §1

[6] = tested on: HDQ-P1
Protocol: as §1

[7] = tested on: CAL-148; remark: listed apart in the source
Protocol: (§2)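 DSRT, CellTiter-Blue viability, 72 h incubation. Signal is normalised to DMSO and benzethonium chloride controls. Value is the normalised response at dose 7.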

[8] = tested on: CAL-85-1; remark: listed apart in the source
Protocol: as §2

[9] = tested on: DU-4475; remark: listed apart in the source
Protocol: as §2

[10] = tested on: CAL-51; remark: listed apart in the source
Protocol: as §2

[11] = tested on: MDA-MB-453; remark: listed apart in the source
Protocol: as §2

[12] = tested on: HDQ-P1; remark: listed apart in the source
Protocol: as §2

[13] = tested on: CAL-148; remark: listed apart in the source
Protocol: (§3)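 DSRT, CellTiter-Blue viability, 72 h incubation. Signal is normalised to DMSO and benzethonium chloride controls. Value is the normalised response at dose 6.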

[14] = tested on: CAL-85-1; remark: listed apart in the source
Protocol: as §3

[15] = tested on: DU-4475; remark: listed apart in the source
Protocol: as §3

[16] = tested on: CAL-51; remark: listed apart in the source
Protocol: as §3

[17] = tested on: MDA-MB-453; remark: listed apart in the source
Protocol: as §3

[18] = tested on: HDQ-P1; remark: listed apart in the source
Protocol: as §3

SMILES | normalised viability [1] | normalised viability [2] | normalised viability [3] | normalised viability [4] | normalised viability [5] | normalised viability [6] | further results
N[C@@H](CSC(c1ccccc1)(c1ccccc1)c1ccccc1)C(=O)O [S-trityl-L-cysteine] (12000 nM) | 106% | 36.7% | 114% | 98.6% | 99.1% | 84.6% | –
CC(C)Cn1cnc2c(N)nc3ccccc3c21 [Imiquimod] (3000 nM) | 95.5% | 107% | 107% | 107% | 95.7% | 89.1% | –
COc1cc2nccc(Oc3ccc(NC(=O)C4(C(=O)Nc5ccc(F)cc5)CC4)cc3)c2cc1OC [Cabozantinib] (300 nM) | 94.7% | 86.3% | 103% | 104% | 112% | 72.6% | –
CCC1(c2ccc(N)cc2)CCC(=O)NC1=O (centres undefined) [Aminoglutethimide] (3000 nM) | 105% | 90.1% | 103% | 85.1% | 82.6% | 92.5% | –
CC1(C)NC(=O)N(c2ccc([N+](=O)[O-])c(C(F)(F)F)c2)C1=O [Nilutamide] (3000 nM) | 99.1% | 96.8% | 106% | 96.9% | 99% | 127% | –
Cc1ccc(C(=O)N(CCCN)[C@@H](c2oc3cc(Cl)ccc3c(=O)c2Cc2ccccc2)C(C)C)cc1 (300 nM) | 16.8% | 32.4% | 31.2% | 26.7% | 24.8% | 62.6% | –
C[C@@H](Oc1cc(-c2cnn(C3CCNCC3)c2)cnc1N)c1c(Cl)ccc(F)c1Cl [Crizotinib] (3000 nM) | 76.8% | 66.1% | 78.7% | 62.9% | 57.3% | 86.7% | –
CCN(CCCOc1ccc2c(Nc3cc(CC(=O)Nc4cccc(F)c4)[nH]n3)ncnc2c1)CCOP(=O)(O)O [Barasertib] (100 nM) | – | – | – | – | – | – | normalised viability [7]: 23.7%; normalised viability [8]: 77.2%; normalised viability [9]: 77%; normalised viability [10]: 60.6%; normalised viability [11]: 55.3%; normalised viability [12]: 76.5%
Cn1c(Nc2ccc(C(F)(F)F)cc2)nc2cc(Oc3ccnc(-c4ncc(C(F)(F)F)[nH]4)c3)ccc21 [RAF265] (300 nM) | 85.5% | 71.5% | 71.3% | 66.9% | 92.5% | 39.4% | –
CCC1=C[C@@H]2CN(C1)Cc1c([nH]c3ccccc13)[C@@](C(=O)OC)(c1cc3c(cc1OC)N(C)[C@H]1[C@@](O)(C(=O)OC)[C@H](OC(C)=O)[C@]4(CC)C=CCN5CC[C@]31[C@@H]54)C2 [Vinorelbine] (3000 nM) | 20.1% | 37.1% | 15.8% | 16.6% | 39.8% | 32.7% | –
C=C(c1ccc(C(=O)O)cc1)c1cc2c(cc1C)C(C)(C)CCC2(C)C [Bexarotene] (3000 nM) | 79.8% | 99.2% | 97% | 92.8% | 84.2% | 77.3% | –
CNCc1ccc(-c2[nH]c3cc(F)cc4c3c2CCNC4=O)cc1 [Rucaparib] (3000 nM) | 87% | 79.3% | 87.3% | 102% | 87.5% | 82.9% | –
O=P1(NCCCl)OCCCN1CCCl (centres undefined) [Ifosfamide] (3000 nM) | 106% | 92.9% | 87.2% | 97.4% | 112% | 107% | –
CN(N=O)C(=O)N[C@@H](C=O)[C@@H](O)[C@H](O)[C@H](O)CO [Streptozocin] (3000 nM) | 98.7% | 97.8% | 95.3% | 108% | 109% | 110% | –
CC(C)Cn1cnc2c(N)nc3ccccc3c21 [Imiquimod] (1000 nM) | – | – | – | – | – | – | normalised viability [7]: 106%; normalised viability [8]: 92.8%; normalised viability [9]: 93.3%; normalised viability [10]: 99.8%; normalised viability [11]: 104%; normalised viability [12]: 86.1%
Cc1ccc(-n2nc(C(C)(C)C)cc2NC(=O)Nc2ccc(OCCN3CCOCC3)c3ccccc23)cc1 [Doramapimod] (3000 nM) | 93.1% | 76% | 114% | 102% | 96.8% | 75.8% | –
CN(C)/N=N/c1[nH]cnc1C(N)=O [Dacarbazine] (3000 nM) | 94.8% | 87.3% | 101% | 97.2% | 95.7% | 95.5% | –
NC(=O)Nc1cc(-c2cccc(F)c2)sc1C(=O)N[C@H]1CCCNC1 [AZD 7762] (300 nM) | 96.1% | 45.4% | 118% | 94.1% | 46.8% | 76.6% | –
Oc1nc(-c2ccc(C(F)(F)F)cc2)nc2c1CSCC2 [XAV-939] (3000 nM) | 89.8% | 94.1% | 94.1% | 90.3% | 95.4% | 76.8% | –
NC(=O)Nc1cc(-c2cccc(F)c2)sc1C(=O)N[C@H]1CCCNC1 [AZD 7762] (100 nM) | – | – | – | – | – | – | normalised viability [7]: 102%; normalised viability [8]: 89.1%; normalised viability [9]: 97.4%; normalised viability [10]: 101%; normalised viability [11]: 88.5%; normalised viability [12]: 96.5%

SMILES | normalised viability [1] | normalised viability [2] | normalised viability [3] | normalised viability [4] | normalised viability [5] | normalised viability [6] | further results
Cc1ccc(C(=O)Nc2ccc(CN3CCN(C)CC3)c(C(F)(F)F)c2)cc1C#Cc1cnc2cccnn12 [Ponatinib] (300 nM) | 87.7% | 80.5% | 73.8% | 73.9% | 54.3% | 58.9% | –
CC(=O)Nc1ccc(C(=O)Nc2ccccc2N)cc1 [CI-994] (300 nM) | 100% | 110% | 90.5% | 99.5% | 96.1% | 130% | –
NCC(=O)CCC(=O)O [Aminolevulinic acid] (1000 nM) | – | – | – | – | – | – | normalised viability [7]: 95%; normalised viability [8]: 97.4%; normalised viability [9]: 95.6%; normalised viability [10]: 106%; normalised viability [11]: 90.5%; normalised viability [12]: 95.2%
CC(=O)Nc1ccc(C(=O)Nc2ccccc2N)cc1 [CI-994] (100 nM) | – | – | – | – | – | – | normalised viability [7]: 91.2%; normalised viability [8]: 89.5%; normalised viability [9]: 98.7%; normalised viability [10]: 98.1%; normalised viability [11]: 92%; normalised viability [12]: 119%
N.N.[Cl][Pt][Cl] [Cisplatin] (3000 nM) | 101% | 99.1% | 96.8% | 106% | 100% | 104% | –
COc1cc([C@@H]2c3cc4c(cc3[C@@H](O[C@@H]3O[C@@H]5CO[C@@H](C)O[C@H]5[C@H](O)[C@H]3O)[C@H]3COC(=O)[C@H]23)OCO4)cc(OC)c1O [Etoposide] (3000 nM) | 41.3% | 76.9% | 3.63% | 26.4% | 89% | 78.7% | –
Cn1c(CCCC(=O)O)nc2cc(N(CCCl)CCCl)ccc21 [Bendamustine] (3000 nM) | 101% | 93.8% | 105% | 112% | 113% | 101% | –
CN[C@@H]1C[C@H]2O[C@@](C)([C@@H]1OC)n1c3ccccc3c3c4c(c5c6ccccc6n2c5c31)C(=O)N[C@H]4O [UCN-01] (3000 nM) | 41.7% | 6.08% | 1.19% | 6.6% | 20.2% | 10.2% | –
CNCc1ccc(-c2[nH]c3cc(F)cc4c3c2CCNC4=O)cc1 [Rucaparib] (300 nM) | – | – | – | – | – | – | normalised viability [13]: 91.7%; normalised viability [14]: 92.6%; normalised viability [15]: 77.4%; normalised viability [16]: 110%; normalised viability [17]: 108%; normalised viability [18]: 43.2%
COc1cc([C@@H]2c3cc4c(cc3[C@@H](O[C@@H]3O[C@@H]5CO[C@@H](C)O[C@H]5[C@H](O)[C@H]3O)[C@H]3COC(=O)[C@H]23)OCO4)cc(OC)c1O [Etoposide] (300 nM) | – | – | – | – | – | – | normalised viability [13]: 59.4%; normalised viability [14]: 98.9%; normalised viability [15]: 45.6%; normalised viability [16]: 59%; normalised viability [17]: 104%; normalised viability [18]: 77.3%
O=P1(NCCCl)OCCCN1CCCl (centres undefined) [Ifosfamide] (300 nM) | – | – | – | – | – | – | normalised viability [13]: 109%; normalised viability [14]: 97.1%; normalised viability [15]: 78.1%; normalised viability [16]: 108%; normalised viability [17]: 110%; normalised viability [18]: 85.1%
Oc1nc(-c2ccc(C(F)(F)F)cc2)nc2c1CSCC2 [XAV-939] (300 nM) | – | – | – | – | – | – | normalised viability [13]: 93.3%; normalised viability [14]: 89.2%; normalised viability [15]: 116%; normalised viability [16]: 99.3%; normalised viability [17]: 93.8%; normalised viability [18]: 112%
CC1(C)NC(=O)N(c2ccc([N+](=O)[O-])c(C(F)(F)F)c2)C1=O [Nilutamide] (300 nM) | – | – | – | – | – | – | normalised viability [13]: 98%; normalised viability [14]: 104%; normalised viability [15]: 106%; normalised viability [16]: 102%; normalised viability [17]: 113%; normalised viability [18]: 125%
Cn1c(Nc2ccc(C(F)(F)F)cc2)nc2cc(Oc3ccnc(-c4ncc(C(F)(F)F)[nH]4)c3)ccc21 [RAF265] (30 nM) | – | – | – | – | – | – | normalised viability [13]: 86.2%; normalised viability [14]: 88.9%; normalised viability [15]: 111%; normalised viability [16]: 89.8%; normalised viability [17]: 88.3%; normalised viability [18]: 51.7%
C#Cc1cccc(Nc2ncnc3cc(OCCOC)c(OCCOC)cc23)c1 [Erlotinib] (300 nM) | – | – | – | – | – | – | normalised viability [13]: 86.1%; normalised viability [14]: 73.3%; normalised viability [15]: 114%; normalised viability [16]: 96.4%; normalised viability [17]: 86.1%; normalised viability [18]: 63.8%
C[C@]12CC[C@@H]3c4ccc(O)cc4C[C@@H](CCCCCCCCC[S+]([O-])CCCC(F)(F)C(F)(F)F)[C@H]3[C@@H]1CC[C@@H]2O (some centres undefined) [Fulvestrant] (300 nM) | – | – | – | – | – | – | normalised viability [13]: 102%; normalised viability [14]: 87.8%; normalised viability [15]: 92.7%; normalised viability [16]: 111%; normalised viability [17]: 98.8%; normalised viability [18]: 74.7%
Cc1ccc(C(=O)Nc2ccc(CN3CCN(C)CC3)c(C(F)(F)F)c2)cc1C#Cc1cnc2cccnn12 [Ponatinib] (30 nM) | – | – | – | – | – | – | normalised viability [13]: 106%; normalised viability [14]: 90%; normalised viability [15]: 81.4%; normalised viability [16]: 86.3%; normalised viability [17]: 85.3%; normalised viability [18]: 97%
CC(=O)Nc1ccc(C(=O)Nc2ccccc2N)cc1 [CI-994] (30 nM) | – | – | – | – | – | – | normalised viability [13]: 92.8%; normalised viability [14]: 104%; normalised viability [15]: 85.6%; normalised viability [16]: 98.3%; normalised viability [17]: 102%; normalised viability [18]: 100%
NC(=O)Nc1cc(-c2cccc(F)c2)sc1C(=O)N[C@H]1CCCNC1 [AZD 7762] (30 nM) | – | – | – | – | – | – | normalised viability [13]: 93.7%; normalised viability [14]: 99.5%; normalised viability [15]: 99.8%; normalised viability [16]: 103%; normalised viability [17]: 110%; normalised viability [18]: 93.9%
